Results: patent publication US8637665B2, “Pyrrolo[2,L-C][L,4]benzodiazepine-benzothiazole or benzoxazole conjugates linked through piperazine moiety and process for the preparation thereof” (priority 2010, dated 2014)

Key:
[1] = tested on: KB (oral cancer) cell line; test: In vitro anticancer activity, SRB assay, KB; assay type: cell-based, human; conditions: Homo sapiens, 48 h; for GI50: read-out: GI50 KB, 48 h drug exposure, SRB, mean of three determinations; for CC50: read-out: LC50 KB, 50% cell death, 48 h drug exposure, SRB
Experimental: (§1) Anticancer activity: In vitro biological activity studies were carried out at the Advance Center for Treatment Research & Education in Cancer (ACTREC), Navi Mumbai.
(§2) The compounds were evaluated for in vitro anticancer activity against eight tumour cells lines derived from seven cancer types (non-small-cell lung, colon, oral, cervix, ovarian, prostate, and breast cancer) as shown in Table 2. For each compound, dose response curves for each cell line were measured at a minimum of five concentrations at 10 fold dilutions. A protocol of 48 h continuous drug exposure was used and a sulforhodamine B (SRB) protein assay was used to estimate cell viability or growth. The concentration causing 50% cell growth inhibition (GI50) and 50% cell death (LC50, −50% growth) compared with the control was calculated. Compounds 9a-9l have been evaluated for their in vitro cytotoxicity in eight cell lines from seven human cancer types of lung (Hop-62, A-549) colon (COLO-205) cervix (Si—Ha), ovary (A-2780), prostate (PC3) breast (MCF7), oral (KB). The results are expressed as percent of cell growth determined relative to that of untreated control cells (Table-8 and table-9).

[2] = tested on: HOP 62 (lung cancer) cell line; test: cells; assay type: cell-based; conditions: Homo sapiens, HOP-62, 48 h; for GI50: read-out: GI50 HOP 62, 48 h drug exposure, SRB, mean of three determinations; for LC50: read-out: LC50 HOP 62, 50% cell death, 48 h drug exposure, SRB
Experimental: as §1, §2

[3] = tested on: MCF 7 (breast cancer) cell line; test: cells; assay type: cell-based; conditions: Homo sapiens, MCF7, 48 h; for GI50: read-out: GI50 MCF 7; for LC50 (concentration causing 50% cell death): read-out: LC50 MCF 7, 50% cell death, 48 h drug exposure, SRB
Experimental: as §1, §2

[4] = tested on: A 2780 (ovary cancer) cell line; test: cells; assay type: cell-based; conditions: Homo sapiens, A2780, 48 h; for GI50: read-out: GI50 A 2780, 48 h drug exposure, SRB, mean of three determinations; for CC50: read-out: LC50 A 2780, 50% cell death, 48 h drug exposure, SRB
Experimental: as §1, §2

[5] = tested on: PC 3 (prostate cancer) cell line; test: cells; assay type: cell-based; conditions: Homo sapiens, 48 h; for GI50: read-out: GI50 PC 3; for CC50: read-out: LC50 Pc 3, 50% cell death, 48 h drug exposure, SRB
Experimental: as §1, §2

[6] = tested on: SiHa (cervix cancer) cell line; test: cells; assay type: cell-based; conditions: Homo sapiens, SiHa, 48 h; for GI50: read-out: GI50 SiHa, 48 h drug exposure, SRB, mean of three determinations; for LC50 (concentration causing 50% cell death): read-out: LC50 SiHa, 50% cell death, 48 h drug exposure, SRB
Experimental: as §1, §2

[7] = tested on: Colo 205 (colon cancer) cell line; test: cells; assay type: cell-based; conditions: Homo sapiens, COLO 205, 48 h; for GI50: read-out: GI50 Colo 205, 48 h drug exposure, SRB, mean of three determinations; for CC50: read-out: LC50 Colo 205
Experimental: as §1, §2

[8] = tested on: A 549 (lung cancer) cell line; test: cells; assay type: cell-based; conditions: Homo sapiens, A549, 48 h; for GI50: read-out: GI50 A 549, 48 h drug exposure, SRB, mean of three determinations; for CC50: read-out: LC50 A 549, 50% cell death, 48 h drug exposure, SRB
Experimental: as §1, §2

[9] = tested on: eight tumour cells lines derived from seven cancer types; test: In vitro anticancer activity, SRB assay, panel of eight cell lines; assay type: cell-based; conditions: Homo sapiens, range over the eight cell lines per compound; read-out: GI50 range against cancer cell lines
Experimental: as §1, §2

[10] = tested on: duplex-form calf thymus DNA (CT-DNA); test: Thermal denaturation studies with calf thymus DNA (DNA binding affinity); conditions: [PBD]:[DNA] 1:5, CT-DNA 100 μM, ligand 20 μM, pH 7.00
Experimental: Compounds have been subjected to thermal denaturation studies with duplex-form calf thymus DNA (CT-DNA) using an modification of a reported procedure (Newman, M. S. Carcinog-compr. Surv. 1976,1, 203; (b) Hecht, S. S.; Loy, M.; Hoffman, Carcinog-compr. Surv. 1976, 1, 325). Working solutions in aqueous buffer (10 mM NaH2PO4/Na2HPO4, 1 mM Na2EDTA, pH 7.00+0.01) containing CT-DNA (100 μm in phosphate) and the PBD (20 μm) have been prepared by addition of concentrated PBD solutions in DMSO to obtain a fixed [PBD]/[DNA] molar ratio of 1:5. The DNA-PBD solutions have been incubated at 37° C. for 0 and 18 h prior to analysis. Samples have been monitored at 260 using a Beckman DU-800 spectrophotometer fitted with high performance temperature controller, and heated at 1° C. min^−1 in the 40-110° C. range. DNA helix→coil transition temperatures (Tm) have been obtained from the maxima in the d(A260)/dT derivative plots. Drug-induced alterations in DNA melting behavior are given by: ΔTm=Tm(DNA+PBD)−Tm(DNA alone), where the Tm value for the PBD-free CT-DNA is 69.1±0.01.
The DNA binding activity for these novel C8-linked benzothiazole, benzoxazole-PBD hybrids has been examined by thermal denaturation studies using calf thymus (CT) DNA. […] The data for the compounds 9a-n is included in Table 7 for comparison.

[11] = tested on: duplex-form calf thymus DNA (CT-DNA); conditions: comparative data, hybrids without piperazine, cited from earlier work

Row | Structure (SMILES) | GI50 [1] [nM] | CC50 [1] [nM] | GI50 [2] [nM] | LC50 [2] [nM] | GI50 [3] [nM] | LC50 (concentration causing 50% cell death) [3] [nM] | GI50 [4] [nM] | CC50 [4] [nM] | GI50 [5] [nM] | CC50 [5] [nM] | GI50 [6] [nM] | LC50 (concentration causing 50% cell death) [6] [nM] | GI50 [7] [nM] | CC50 [7] [nM] | GI50 [8] [nM] | CC50 [8] [nM] | GI50 [9] [nM] | ΔTm after incubation at 37° C. for 0 h [10] [°C] | ΔTm after incubation at 37° C. for 18 h [10] [°C] | ΔTm after incubation at 37° C. for 0 h (PBD hybrids with out piperizine) [11] [°C] | other results
1 | COc1cc2c(cc1OCCCN1CCN(CCCOc3ccc(-c4nc5ccccc5s4)cc3)CC1)N=C[C@@H]1CCCN1C2=O [Compound 9a] | 120 | 2400 | 100 | 27000 | < 10 | 1900 | 108 | 23000 | 120 | 28000 | 130 | 27500 | 100 | > 100000 | 130 | > 100000 | ≤ 130 | 10.2 | 10.8 | – | –
2 | COc1cc(-c2nc3ccccc3s2)ccc1OCCCN1CCN(CCCOc2cc3c(cc2OC)C(=O)N2CCC[C@H]2C=N3)CC1 [Compound 9b] | < 10 | 2200 | < 10 | 28000 | < 10 | < 10 | < 10 | 120 | < 10 | 2400 | < 10 | 2400 | 90 | > 100000 | 120 | > 100000 | ≤ 120 | 12.1 | 12.7 | – | –
3 | COc1cc2c(cc1OCCCN1CCN(CCCOc3ccc(-c4nc5ccc(F)cc5s4)cc3)CC1)N=C[C@@H]1CCCN1C2=O [Compound 9c] | 110 | 26000 | 110 | 29000 | < 10 | 170 | 116 | 2300 | 110 | 2300 | 130 | 27000 | 130 | > 100000 | < 10 | 33000 | ≤ 130 | 10.3 | 10.7 | – | –
4 | COc1cc2c(cc1OCCCCN1CCN(CCCCOc3cccc(-c4nc5ccccc5s4)c3)CC1)N=C[C@@H]1CCCN1C2=O [Compound 9h, 7-Methoxy-8-[4-(4-{4-[3(1,3-benzothiazol-2-yl)-phenoxy]butyl}piperazin-1-yl)butyl]oxy-(11aS)-1,2,3,11a-tetrahydro-5H-pyrrolo[2,1-c][1,4]benzodiazepin-5-one] | 120 | 200 | 100 | 27000 | 120 | 2200 | 109 | 2300 | 140 | 2400 | 130 | 27000 | 160 | > 100000 | 120 | > 100000 | – | 11.9 | 12.3 | – | –
5 | COc1cc2c(cc1OCCCCCOc1ccc(-c3nc4ccccc4o3)cc1)N=C[C@@H]1CCCN1C2=O [Compound 30a] | – | – | – | – | – | – | – | – | – | – | – | – | – | – | – | – | – | – | – | 4.1 | ΔTm after incubation at 37° C. for 18 h (PBD hybrids with out piperizine) [11]: 4.3 °C
6 | COc1cc(-c2nc3ccccc3o2)ccc1OCCCCCOc1cc2c(cc1OC)C(=O)N1CCC[C@H]1C=N2 [Compound 30b] | – | – | – | – | – | – | – | – | – | – | – | – | – | – | – | – | – | – | – | 4.2 | ΔTm after incubation at 37° C. for 18 h (PBD hybrids with out piperizine) [11]: 4.3 °C
